Experiments:
[1] = tested on: HSF1; assay: Phosphorylation (activation) of HSF1 in heat-shocked K562 cells, band shift 66 kDa to 81 kDa by SDS-PAGE/Western blotting; type: cell-based, human; settings: for shift of a band of 66 kDa (HSF1 not phosphorylated) to a band of 81 kDa (phosphorylated HSF1): Experiment 1, 1, 10 or 100 ng/mL, heat shock 42° C., 20 minutes; for amount of HSF1 per se / band shift of HSF1 (66 kDa to 81 kDa): Experiment 2 (and comparative Experiment 3), 100 ng/mL, heat shock 43° C.
Source text: It is known that HSF1 (heat shock factor 1) protein is a transcription factor of Hsp70 (J. Biol. Chem., 271, pp. 3355-3358, 1996). Moreover, the HSF1 protein can be activated by phosphorylation, and this phosphorylation can be detected based on band shift in SDS-polyacrylamide gel electrophoresis (SDS-PAGE) (apparent molecular weight shifts from about 66 kDa to about 81 kDa). By utilizing this fact, the HA oligosaccharides of various sizes were allowed to act on the K562 cells given with stress, and the aforementioned band shift was detected to investigate the degree of the phosphorylation (activation) of HSF1.
HA4, ΔHA4, HA6, HA8, HA2-18 and HA 8-14 were each added to a medium containing the aforementioned cells at a concentration of 1, 10 or 100 ng/mL. Then, the cells were immediately transferred into an environment at 42° C. to be given with heat shock and incubated for 20 minutes. After the incubation, the cells were collected by centrifugation, and SDS-PAGE (gel concentration: 10%) was performed. Thereafter, Western blotting was performed by using anti-HSF1 monoclonal antibodies (produced by Stressgene) as primary antibodies and goat anti-mouse IgG monoclonal antibodies (produced by Jackson Lab) as secondary antibodies to detect the shift of a band of 66 kDa (HSF1 not phosphorylated) to a band of 81 kDa (phosphorylated HSF1).
In order to confirm the reproducibility of Experiment 1, the band shift was detected in the same manner as in Experiment 1 by using HA4, ΔHA4, HA8 and HA84 except that HA was added in a single kind of amount of 100 ng/mL, and the heat shock was given at 43° C. In FIG. 41, the first lane from the left indicates the result obtained with an extract of cells incubated at 37° C. (no addition of HA oligosaccharide), the second lane indicates the result obtained with an extract of cells subjected to 43° C. (no addition of HA oligosaccharide), and the first lane from the right indicates the result of detection of HSF1 (derived from bacteria) as a standard.
In order to investigate whether the action observed in Experiment 2 was specific to the saccharide chain basic structure of HA oligosaccharides, the following comparative experiment was performed by using chondroitin oligosaccharides. […] Therefore, it can be said that Ch is a substance extremely structurally analogous to HA, and the same shall also apply to the oligosaccharides thereof. • Saturated Ch tetrasaccharide (Ch4) • GlcAβ1-3GalNAcβ1-4GlcAβ1-3GalNAc • Saturated Ch hexasaccharide (Ch6) • GlcAβ1-3GalNAcβ1-4GlcAβ1-3GalNAcβ1-4GlcAβ1-3GalNAc • Saturated Ch octasaccharide (Ch8) • GlcAβ1-3GalNAcβ1-4GlcAβ1-3GalNAcβ1-4GlcAβ1-3GalNAcβ1-4GlcAβ1-3GalNAc
The same experiment as Experiment 2 was performed by using these oligosaccharides.

[2] = tested on: Hsp72; assay: Expression of Hsp72 in K562 cells given heat shock, Western blotting; type: cell-based, human
Experimental: HA2, ΔHA4, HA6, HA84 and L4L4 were each added to a medium containing the aforementioned cells (37° C.) at a concentration of 1, 10 or 100 ng/mL. Then, the cells were immediately transferred into an environment at 43° C. to be given with heat shock and incubated for 20 minutes. Then, the cells were returned to 37° C., then further incubated for 2 hours and collected by centrifugation, and SDS-PAGE was performed in the same manner as in <1> mentioned above. Thereafter, Western blotting was performed by using anti-Hsp72 monoclonal antibodies (produced by Amersham) as primary antibodies and goat anti-rabbit IgG monoclonal antibodies (produced by Jackson Lab) as secondary antibodies to detect Hsp72. Hsp72 is one of the members of Hsp70 family and is the most typical one, and it is known that its expression is induced and promoted by stress.
The leftmost lane in FIG. 42a indicates the results of the detection of Hsp72 in a similar manner with giving no heat shock (37° C.) and addition of no test substance, and the rightmost lane indicates the results of detection of standard Hsp72 (Hsp72 derived from bacteria, bHsp72) in a similar manner.

SMILES	shift of a band of 66 kDa (HSF1 not phosphorylated) to a band of 81 kDa (phosphorylated HSF1) [1]	amount of HSF1 per se [1]	band shift of HSF1 (66 kDa to 81 kDa) [1]	expression of Hsp72 ([2]; K562 cells not given heat shock)	expression of Hsp72 ([2]; K562 cells, 1, 10 or 100 ng/mL, heat shock 43° C. 20 minutes, then 37° C. 2 hours)
CC(=O)N[C@H]1[C@H](O[C@H]2[C@H](O)[C@@H](O)[C@H](O[C@H]3[C@H](O)[C@@H](CO)O[C@@H](O[C@H]4[C@H](O)[C@@H](O)[C@H](O[C@H]5[C@H](O)[C@@H](CO)O[C@@H](O[C@H]6[C@H](O)[C@@H](O)[C@H](O[C@H]7[C@H](O)[C@@H](CO)OC(O)[C@@H]7NC(C)=O)O[C@@H]6C(=O)O)[C@@H]5NC(C)=O)O[C@@H]4C(=O)O)[C@@H]3NC(C)=O)O[C@@H]2C(=O)O)O[C@H](CO)[C@@H](O)[C@@H]1O[C@@H]1O[C@H](C(=O)O)[C@@H](O)[C@H](O)[C@H]1O (stereo partly drawn) [HA8, sodium β-D-glucopyranosyluronate-[(1→3)-2-acetamido-2-deoxy-β-D-glucopyranosyl-(1→4)-(sodium β-D-glucopyranosyluronate)]3-(1→3)-2-acetamido-2-deoxy-D-glucopyranose]	inhibition of the band shift was observed	increase of the amount of HSF1 of 66 kDa was observed	band shift to the band of 81 kDa was not observed	–	–
CC(=O)NC1C(O)OC(CO)[C@@H](O)C1O[C@@H]1OC(C(=O)[O-])[C@@H](O[C@@H]2OC(CO)[C@@H](O)C(O[C@@H]3OC(C(=O)[O-])=CC(O)C3O)C2NC(C)=O)C(O)C1O.[Na+].[Na+] (stereo partly drawn) [ΔHA4, ΔGlcAβ1-3GlcNAcβ1-4GlcAβ1-3GlcNAc]	shift to the 81 kDa band was observed depending on the amount of the added HA oligosaccharide	amounts of both HSF1 of 66 kDa and 81 kDa per se were also increased	band shift was observed	enhancement of the expression of Hsp72 by ΔHA4 was not observed	particularly strongly enhanced
CC(=O)N[C@H]1[C@H](O[C@H]2[C@H](O)[C@@H](O)[C@H](O[C@H]3[C@H](O)[C@@H](CO)O[C@@H](O[C@H]4[C@H](O)[C@@H](O)[C@H](O[C@H]5[C@H](O)[C@@H](CO)OC(O)[C@@H]5NC(C)=O)O[C@@H]4C(=O)O)[C@@H]3NC(C)=O)O[C@@H]2C(=O)O)O[C@H](CO)[C@@H](O)[C@@H]1O[C@@H]1O[C@H](C(=O)O)[C@@H](O)[C@H](O)[C@H]1O.[Na].[Na].[Na] (stereo partly drawn) [HA6, sodium β-D-glucopyranosyluronate-[(1→3)-2-acetamido-2-deoxy-β-D-glucopyranosyl-(1→4)-(sodium β-D-glucopyranosyluronate)]2-(1→3)-2-acetamido-2-deoxy-D-glucopyranose]	shift to the 81 kDa band was observed depending on the amount of the added HA oligosaccharide	–	–	–	–

From patent US8314079B2, “Hyaluronic acid oligosaccharide fractions and drugs containing the same” (Seikagaku Corporation, priority 2000, dated 2012)
